Test results as given in patent publication US20210355115A1, “ISOXAZOLE CARBOXAMIDE COMPOUNDS AND USES THEREOF” (Novartis AG, priority 2018, published 2021).

What was measured:
Atoh1 = Atoh1 induction assay in mouse cerebellar neural precursor cells (Atoh1-GFP reporter assay); assay type: cell-based; settings: maximum fold difference over DMSO control (=1), cerebellar NPCs from Atoh1-GFP mice, 10 doses 50 μM to 200 nM, 72 hours treatment, read-out: Fold Difference (ratio of Atoh1-GFP average intensity_FC to DMSO_Max)
Description: Atoh1 induction assay was conducted with in vitro cultured cerebellar neural precursor cells isolated from neonatal transgenic Atoh1-GFP mice. Atoh1 expression is mainly regulated by the enhancer, and the nuclear GFP was driven by the cloned enhancer sequence at 3′ of Atoh1 which had high conservation among mammalians So Atoh1 induction could be reflected by GFP activation in cerebellar neural precursor cells (Helms et al., Development 2000; 127: 1185-1196; Lumpkin et al., Gene Expression Patterns 2003; 3: 389-395). Postnatal 3 days pups were dissected for cerebellum tissue isolation. The cerebellum tissue was cut into small pieces, and dissociated with 0.05% Trypsin for about 10 minutes at 37° C., and then filtered with a 70 uM cell strainer. The cells were cultured as neuropsheres for the first 2 days in ultra-low attachment dish/well-plate with DMEM/F12+1% N2 &2% B27 with 1% P/S, 20 ng/ml rhFGF2 and 20 ng/ml rhEGF (R&D Systems). Then the spheres were plated to the matrigel (1:30 diluted in DMEM/F12)-coated tissue culture dish for monolayer culture. After 4.5-5.5 days culture in vitro (DIV), cells were dissociated with 0.05% trypsin into single cells, and frozen after cell number calculation.
The cerebellar neural precursor cells (NPCs) were re-thawed from stock and cultured for another 2 days before used for Atoh1 induction assay. On the first day of assay, NPCs were seeded into matrigel-coated 384 well plates (Black view-plate, PE) at 2500 cells/well. After over-night culture, the NPCs were treated with representative compounds of the present disclosure with 1:2 serial dilutions for 10 doses, from 50 μM to 200 nM, with DMSO as negative control. After 72 hours treatment without medium change, the cells were fixed with 4% formalin for staining Assay plates were stained with GFP antibody (Abcam, #13970, 1:1000) to amplify endogenous GFP signal and then read by Cellomics. […] Table 1 Atoh1 activation by treatment of Compounds of the present disclosure (Atoh1-GFP reporter assay in cerebellar NPCs)

[1] = tested on: mouse cochlea explants with hair cell damage; experiment: Ex vivo hair cell induction assay using 6-day-postnatal mouse cochlea explants with hair cell damage; assay type: cell-based; settings: 10 μM; neomycin-damaged P6 Atoh1-GFP mouse cochlea explants; 8 days treatment; Mean ± SD; DMSO control 0
Description: Ex Vivo Hair Cell Induction Assay Using 6-Day-Postnatal Mouse Cochlea Explants with Hair Cell Damage
P6, postnatal 6 days, Atoh1-GFP mice, the same mouse strain used for Atoh1 induction assay described before, were used in this assay. The otic capsule was exposed and the cochleae were micro-dissected. The basilar membrane was separated from the organ of Corti and in vitro cultured in serum free medium (culture medium: DMEM/F12+1% N2+2% B27+5 μg/ml ampicillin) at 37° C. under a standard gas atmosphere of humidified air/5% CO2. Inner ear hair cells were damaged by 1 mM Neomycin treatment for […] After the neomycin treatment, explants were cultured in blank culture medium for 7 days before the treatment of selected compounds.
For compound administration, the cochlea explants were treated with 3 to 10 μM compound of the present disclosure, with DMSO as the negative control for 8 days with once compound/medium change. After 8 days treatment, the tested compound was removed. The explants were cultured in blank medium for additional 4 days. The cochlea explant cultures then were fixed with 4% w/v formalin and processed for Myo7a immunofluorescence (Myo7a is a specific marker for sensory hair cell) using the rabbit anti-Myo7a antibody (Protus Biosci #25-6790, 1:250 diluted in PBS containing 3% BSA). Rhodamine labeled Goat-anti-rabbit IgG (Molecular Prob. #R6394, 1:1000 diluted in PBS containing 3% BSA) was used as the secondary antibody to visualize the Myo7a positive cells. The images were collected and analyzed using the EVOS image system (Thermo-Fisher Scientific). […] The hair cell identity of the ectopically formed cells was confirmed by staining the cells with multiple hair cell markers.
The efficacy of hair cells induction in this assay is represented by the responsive length percentage of Atoh1 and Myo7a double positive cells in the damaged whole explants after compound treatment. The responsive length percentage was calculated according to the equation of ((the explant length with Atoh1 and Myo7a double positive cells/the full length of cochlea explant)*100%). Note the value of DMSO control is 0% due to total damage of hair cells, and any responsive length percentage more than 20% is considered as significant hair cell induction.

Row | Structure (SMILES) | maximal fold induction (Atoh1) | Atoh1-GFP/Myo7a cell numbers in 25%-50% length from Apex [1] | Response ratio (Response length/full length %) [1]
1 | NC(=O)C1CN(CCCCCNC(=O)c2cc(-c3cccs3)on2)CC1O (single isomer, unassigned) [33 peak 1] | 34.8 | 19.4 ± 2.7 | 62.1 ± 11.8%
2 | NC(=O)[C@@H]1CN(CCCCCNC(=O)c2cc(-c3cccs3)on2)CC[C@H]1O [35 trans] | 24.8 | 14.2 ± 1.8 | 63.9 ± 5.8%
3 | NC(=O)CN1CCN(CCCCCNC(=O)c2cc(-c3cccs3)on2)CC1 [Example 18, N-(5-(4-(2-amino-2-oxoethyl)piperazin-1-yl)pentyl)-5-(thiophen-2-yl)isoxazole-3-carboxamide] | 20.4 | 16.1 ± 3.0 | 59.4 ± 5.3%
4 | O=C(NCCCCCN1CC(C(=O)NC2COCC2O)C1)c1cc(-c2cccs2)on1 (centres unmarked) [Example 36, N-(5-(3-((4-hydroxytetrahydrofuran-3-yl)carbamoyl)azetidin-1-yl)pentyl)-5-(thiophen-2-yl)isoxazole-3-carboxamide] | 13.6 | – | –
5 | NC(=O)[C@H](O)CN1CCN(CCCCCNC(=O)c2cc(-c3cccs3)on2)CC1 [Example 37 R, (R)—N-(5-(4-(3-amino-2-hydroxy-3-oxopropyl)piperazin-1-yl)pentyl)-5-(thiophen-2-yl)isoxazole-3-carboxamide] | – | 13.6 ± 4.0 | 42.2 ± 7.7%
6 | NC(=O)[C@@H](O)CN1CCN(CCCCCNC(=O)c2cc(-c3cccs3)on2)CC1 [Example 37 S, (S)—N-(5-(4-(3-amino-2-hydroxy-3-oxopropyl)piperazin-1-yl)pentyl)-5-(thiophen-2-yl)isoxazole-3-carboxamide] | – | 11.1 ± 3.0 | 50.1 ± 16.8%
7 | NC(=O)C(O)CN1CCN(CCCCCNC(=O)c2cc(-c3cccs3)on2)CC1 (centres unmarked) [Example 37, N-(5-(4-(3-amino-2-hydroxy-3-oxopropyl)piperazin-1-yl)pentyl)-5-(thiophen-2-yl)isoxazole-3-carboxamide] | 27.6 | 16.3 ± 4.0 | 56.9 ± 8.8%
